In PMC5382172 (Frontiers in Molecular Neuroscience, 2017):
Values joined by “and” are separate entries in the source; they are usually repeats but may differ in a detail not shown here. Equal values may be shown once.

What was measured:
GluClαP192Y/βWT receptor = target: T1, GluClαP192Y/βWT receptor (Caenorhabditis elegans, UniProt G5EBR3+Q17328, P192Y); assay: Whole-cell patch clamp in CHO cells, GluClαP192Y/βWT receptor; assay type: cell-based; conditions: 500 nM IVM, -60 mV
T1 construct: entry codes of the full-length subunits used in this study; expressed in transfected cells; host or cells: CHO cells, transient co-transfection 1:1, pcDNA3.1
T1 sequence (G5EBR3 21-461 P192Y): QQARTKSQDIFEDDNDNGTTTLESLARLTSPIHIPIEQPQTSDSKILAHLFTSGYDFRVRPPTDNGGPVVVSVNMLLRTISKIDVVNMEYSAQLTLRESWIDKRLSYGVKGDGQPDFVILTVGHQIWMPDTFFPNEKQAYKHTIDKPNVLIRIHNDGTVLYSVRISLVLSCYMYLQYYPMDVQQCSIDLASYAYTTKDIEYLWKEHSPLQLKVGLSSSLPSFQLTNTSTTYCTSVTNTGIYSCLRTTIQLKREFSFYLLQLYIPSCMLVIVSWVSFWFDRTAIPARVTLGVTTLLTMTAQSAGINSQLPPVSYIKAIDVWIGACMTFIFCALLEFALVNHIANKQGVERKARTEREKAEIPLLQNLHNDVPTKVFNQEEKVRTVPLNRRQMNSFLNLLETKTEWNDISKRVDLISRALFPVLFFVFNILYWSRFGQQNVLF
T1 sequence (Q17328 23-434): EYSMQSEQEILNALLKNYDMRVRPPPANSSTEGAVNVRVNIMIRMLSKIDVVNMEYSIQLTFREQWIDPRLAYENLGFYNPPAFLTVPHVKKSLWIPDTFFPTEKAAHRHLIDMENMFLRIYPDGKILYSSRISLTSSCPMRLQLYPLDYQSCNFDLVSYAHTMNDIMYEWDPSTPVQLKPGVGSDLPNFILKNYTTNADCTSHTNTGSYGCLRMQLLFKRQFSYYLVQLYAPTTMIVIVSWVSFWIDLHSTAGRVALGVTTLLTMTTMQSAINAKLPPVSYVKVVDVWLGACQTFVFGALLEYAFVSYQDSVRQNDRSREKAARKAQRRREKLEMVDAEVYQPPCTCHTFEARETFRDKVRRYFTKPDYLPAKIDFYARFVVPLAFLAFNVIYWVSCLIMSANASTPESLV
Protocol: (§1) Chinese hamster ovary (CHO) cells were cultured as previously (Bar-Lev et al., [2011]) in Dulbecco’s Modified Eagle Medium (DMEM) containing 10% fetal calf serum, 2 mM glutamax, 100 Units/ml penicillin G and 100 μg/ml streptomycin, and grown in 5% CO2 at 37°C under 90%–95% humidity. The cells were seeded on glass coverslips (13-mm diameter) placed in a 24-multiwell plate. […] For the expression of GluCl receptors, cells were transiently co-transfected with pcDNA3.1 plasmids containing the ORFs of interest using transit-LT1 transfection reagent (Mirus, Madison, WI, USA), according to the manufacturer’s protocol. The cDNAs encoding the C. elegans GluClα (GLC-1) or its mutated versions and the GluClβ (GLC-2) subunits (200–600 ng per well) were used at 1:1 ratio. The pIRES-CD8 plasmid (200 ng per well) was added to enable the visualization of the expressing cells by beads coated with anti-CD8 antibodies (Invitrogen). […]
(§2) Whole-cell patch clamp recordings were performed as described previously (Bar-Lev et al., [2011]) in CHO cells that were prepared as detailed above. […] The currents were measured with an Axopatch 200B patch-clamp amplifier (Molecular Devices, Sunnyvale, CA, USA) and a Digidata 1440A interface (Molecular Devices). […]

[1] = target: T2, GluClα[SSS→GSD]/βWT receptor (Caenorhabditis elegans, UniProt G5EBR3+Q17328, S236G/S238D); assay: Whole-cell patch clamp in CHO cells, GluClα[SSS→GSD]/βWT receptor; assay type: cell-based; conditions: 500 nM IVM, -60 mV
T2 construct: entry codes of the full-length subunits used in this study; expressed in transfected cells; host or cells: CHO cells, transient co-transfection 1:1, pcDNA3.1
T2 sequence (Q17328 23-434): as above
T2 sequence (G5EBR3 21-461 S236G/S238D): as the sequence (G5EBR3 21-461 P192Y) above, with Y172P, S216G, S218D counted along it
Protocol: as §1, §2

[2] = target: T3, GluClαWT (GLC-1) homomeric receptor (Caenorhabditis elegans, UniProt G5EBR3); set-up: method as in Degani-Katzav et al., [2016]; conditions: CHO cells, αWT alone; ref Degani-Katzav et al., [2016]; cited from earlier work
T3 construct: entry codes of the full-length subunits used in this study; expressed in transfected cells; host or cells: CHO cells, transient transfection, pcDNA3.1
T3 sequence (G5EBR3 21-461): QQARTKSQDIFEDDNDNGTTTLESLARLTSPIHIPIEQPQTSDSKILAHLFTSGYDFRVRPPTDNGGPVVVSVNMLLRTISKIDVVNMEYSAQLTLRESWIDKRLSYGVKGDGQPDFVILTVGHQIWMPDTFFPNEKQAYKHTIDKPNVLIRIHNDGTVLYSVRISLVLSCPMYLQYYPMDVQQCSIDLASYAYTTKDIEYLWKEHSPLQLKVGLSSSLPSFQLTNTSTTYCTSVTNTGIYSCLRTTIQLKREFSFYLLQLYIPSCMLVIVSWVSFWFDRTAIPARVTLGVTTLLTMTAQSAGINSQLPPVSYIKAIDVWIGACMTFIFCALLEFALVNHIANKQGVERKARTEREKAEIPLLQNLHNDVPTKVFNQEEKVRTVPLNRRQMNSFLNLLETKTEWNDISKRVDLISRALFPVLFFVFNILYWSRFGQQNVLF

[3] = target: T3, GluClαWT (GLC-1) homomeric receptor; assay: Whole-cell patch clamp in CHO cells transfected with GluClαWT subunit alone; assay type: cell-based; conditions: αWT alone, 500 nM IVM, -60 mV
GluClαP192E/βWT receptor = target: T4, GluClαP192E/βWT receptor (Caenorhabditis elegans, UniProt G5EBR3+Q17328, P192E); assay: Whole-cell patch clamp in CHO cells, GluClαP192E/βWT receptor; assay type: cell-based; conditions: 500 nM IVM, -60 mV
T4 construct: entry codes of the full-length subunits used in this study; expressed in transfected cells; host or cells: CHO cells, transient co-transfection 1:1, pcDNA3.1
T4 sequence (Q17328 23-434): as the sequence (Q17328 23-434) above
T4 sequence (G5EBR3 21-461 P192E): as the sequence (G5EBR3 21-461 P192Y) above, with Y172E counted along it
Protocol: as §1, §2

GluClαF276A/βWT receptor = target: T5, GluClαF276A/βWT receptor (Caenorhabditis elegans, UniProt G5EBR3+Q17328, F276A); assay: Whole-cell patch clamp in CHO cells, GluClαF276A/βWT receptor; assay type: cell-based
T5 construct: entry codes of the full-length subunits used in this study; expressed in transfected cells; host or cells: CHO cells, transient co-transfection, pcDNA3.1 (X-tremeGENE HP for the IVM-EC50 experiments)
T5 sequence (G5EBR3 21-461 F276A): as the sequence (G5EBR3 21-461 P192Y) above, with Y172P, F256A counted along it
T5 sequence (Q17328 23-434): as the sequence (Q17328 23-434) above
Protocol: Chinese hamster ovary (CHO) cells were cultured as previously (Bar-Lev et al., [2011]) in Dulbecco’s Modified Eagle Medium (DMEM) containing 10% fetal calf serum, 2 mM glutamax, 100 Units/ml penicillin G and 100 μg/ml streptomycin, and grown in 5% CO2 at 37°C under 90%–95% humidity. The cells were seeded on glass coverslips (13-mm diameter) placed in a 24-multiwell plate. […] For the expression of GluCl receptors, cells were transiently co-transfected with pcDNA3.1 plasmids containing the ORFs of interest using transit-LT1 transfection reagent (Mirus, Madison, WI, USA), according to the manufacturer’s protocol. The cDNAs encoding the C. elegans GluClα (GLC-1) or its mutated versions and the GluClβ (GLC-2) subunits (200–600 ng per well) were used at 1:1 ratio. The pIRES-CD8 plasmid (200 ng per well) was added to enable the visualization of the expressing cells by beads coated with anti-CD8 antibodies (Invitrogen). For high-level expression of the GluClαF276A/βWT mutant receptor in experiments assigned to determine its IVM-EC50, we used the X-tremeGENE HP DNA Transfection Reagent (Roche Life Science). Recordings were performed 72–96 h following the transfection.
Whole-cell patch clamp recordings were performed as described previously (Bar-Lev et al., [2011]) in CHO cells that were prepared as detailed above. The normal external solution (NES) contained (in millimolar): 140 NaCl, 2.8 KCl, 2 CaCl2, 2 MgCl2, 10 glucose and 10 HEPES, adjusted to pH 7.35 with NaOH (310 mOsm/L). The pipette solution contained (in millimolar): 130 KCl, 4 MgCl2, 4 Na2ATP, 1 EGTA and 10 HEPES, adjusted to pH 7.35 with KOH (290 mOsm/L). The osmolarity of these solutions was maintained by adding sucrose. The electrode resistance was 6–10 MΩ when filled with the pipette solution. External solutions were applied onto the cell by using the VC-77SP fast-step system (Warner Instruments, Hamden, CT, USA) combined with N2 pressure of 3–4 psi to produce laminar flow of the external solution onto the patched cell. All measurements were performed at room temperature. The currents were measured with an Axopatch 200B patch-clamp amplifier (Molecular Devices, Sunnyvale, CA, USA) and a Digidata 1440A interface (Molecular Devices). Acquisition of recording data was performed at 2.5 kHz and recordings were low-pass filtered at 1 kHz, through a four-pole Bessel filter. The pClamp 10 software (Molecular Devices) was used for data acquisition. […] Five-hundred milliseconds after the application started (which is also after the current reached to its peak at −60 mV), the voltage was stepped from −60 mV to −80 mV for 50 ms followed by a 250-ms-long voltage ramp ranging from −80 mV to +80 mV.
Dose-response curves were fitted to the data points by a nonlinear regression using the Hill Equation 1,

In the case of `CC[C@H](C)[C@H]1O[C@]2(CC[C@@H]1C)C[C@@H]1C[C@@H](C/C=C(\C)[C@@H](O[C@H]3C[C@H](OC)[C@@H](O[C@H]4C[C@H](OC)[C@@H](O)[C@H](C)O4)[C@H](C)O3)[C@@H](C)/C=C/C=C3\CO[C@@H]4[C@H](O)C(C)=C[C@@H](C(=O)O1)[C@]34O)O2` [IVM, ivermectin], the “IVM (500 nM) Amplitude” value (GluClαP192Y/βWT receptor) is listed as 1.2 ± 0.2 nA, the “IVM (500 nM) Amplitude” value [1] is listed as 1.8 ± 0.4 nA and the “response to 500 nM IVM” value [2] is listed as “robust responses”. For the same compound, the “IVM (500 nM) Amplitude” value [3] was 1.0 ± 0.3 (14) nA, the “IVM (500 nM) Amplitude” value (GluClαP192E/βWT receptor) was 1.7 ± 0.3 nA and the “increase in IVM-EC50 relative to GluClαWT/βWT” value (GluClαF276A/βWT receptor) was 20 fold. The “Fold decrease in Glu-EC50 observed after pre-exposure to IVM” value (GluClαF276A/βWT receptor; 50 nM IVM) was ~ 8.5 fold, the “magnitude of the IVM-elicited current” value (GluClαF276A/βWT receptor; 50 nM IVM, -60 mV, just before the second application of Glu) was 70 pA and the “decrease of IVM/Glu response ratio compared to GluClαWT/βWT” value (GluClαF276A/βWT receptor; 500 nM IVM (-60 mV) over Glu-EC50 concentration (+60 mV) peak currents) was ~ 7 fold. The “fold-potentiation of Glu-elicited response by IVM” value (GluClαF276A/βWT receptor; 1 mM Glu before and after exposure to 50 nM IVM) was ~ 18 fold and 17.9 ± 1.8 fold, the “IVM (500 nM) Amplitude” value (GluClαF276A/βWT receptor; CHO cells, 500 nM IVM, -60 mV) was 0.2 ± 0.03 nA and the “Hill coefficient of activation by IVM” value (GluClαF276A/βWT receptor; cumulative IVM concentrations, -60 mV) was 3.5 and 3.5 ± 0.40. The EC50 (GluClαF276A/βWT receptor; cumulative IVM concentrations, -60 mV, high-level expression (X-tremeGENE HP)) was 802 nM.
